The values below come from patent US6900234B1, “Synergistic therapeutic compositions and methods” (Pfizer, Inc., priority 1990, dated 2005).

For experiment [1], the system named is Male Hartley guinea pigs. As to the kind of experiment: Mean arterial pressure lowering (AOC-MAP) in conscious sodium-depleted guinea pigs after i.v. dosing. The experiment is classed as in vivo, guinea pig. The arrangement: unit not given here. On the procedure: Male Hartley guinea pigs weighing between 250 and 300 g were obtained from Charles River Laboratories, Lakeview, N.J. The guinea pigs were allowed to acclimate to their environment for at least two weeks. Then, they were placed on a low sodium diet (Purina Modified Guinea Pig Chow, no sodium added) for 14 days and were given injections of furosemide (Lasix® 2 mg/kg, i.m.) on three non-consecutive days. At least 24 hours prior to experimentation, the animals were anesthetized with xylazine (Rompun®, 10 mg/kg, s.c.) and ketamine (Vetalar®, 80 mg/kg, i.m.) and, using aseptic technique, cannulae (PE-50) were implanted into the aorta via the right carotid artery for direct measurement of mean arterial pressure (MAP). Cannulae (PE-50) were also placed into the left jugular vein for intravenous compound administration. Both catheters were exteriorized at the intrascapular region of the animal's back and flushed with a heparinized dextrose solution. To prevent the formation of clots, each cannula was filled with heparin at a concentration of 1000 units/ml. After surgery, an antibacterial, trimethoprim/sulfamethoxazole (Di-Trim®, 30 mg/kg, s.c.), was given to the animals. The animals were allowed to recover with water and no-sodium chow administered ad libitum. On the day of the experiment, each guinea pig was given an additional injection of furosemide (6 mg/kg, i.m.) to accelerate sodium loss and was placed in,a sound-proof, ventilated box with one-way glass for observation. Mean arterial pressure was monitored with a Statham 23DB strain gauge pressure transducer previously calibrated using a mercury manometer. The arterial pressure waveform and derived heart rate were continuously recorded on a Grass Model 7D osciliograph. Arterial pressure waveform samples were obtained approximately every 20 seconds using an IBM PS/2 model 30 computer equipped with a custom algorithm designed to calculate mean arterial pressure from the integrated waveform. Values were obtained for a period of at least one hour prior to and 2 hours (usually 4 hours) after dosing. The test compounds were infused intravenously followed by a 250 μl flush with heparinized dextrose solution.
Dose response curves for the renin inhibitor (RI) (0.3 to 3.0 mg/kg, i.v.) and captopril (0.03 to 1.0 mg/kg, i.v.) were obtained (n=4 to 8) in order to quantitate baseline responses to each drug. In experiments where the renin inhibitor and captopril were co-administered, the renin inhibitor was given first immediately followed by captopril. Doses of renin inhibitor and angiotensin converting enzyme inhibitor, when given together, were chosen on the basis of causing submaximal hypotensive effects. Therefore, the contributory effect of each drug could be quantitated by integration and compared to the expected effect to determine whether additive or synergistic responses had occurred.
Employing the procedure described above, the changes in mean arterial pressure (ΔMAP) for the renin inhibitor (RI), the ACE inhibitor (captopril) and the renin inhibitor (RI), plus the ACE inhibitor (captopril) were obtained for various doses and are shown in Table I, below. The AOC-MAP is the area over the dose response curve for each dose calculated using the trapezoidal method.
The data in Table I were obtained by averaging the Δ MAP of all animals for each dose prior to calculating the AOC-MAP. When the data contained in Table I was reviewed for the purpose of calculating the AOC-MAP by averaging the area over the dose response curve for each animal per dose, it was discovered that the AOC-MAP for 0.5 mg/kg RI plus 0.05 mg/kg captopril inadvertently reflected the data based on only three of the six subject test animals. Shown below in Table II are the AOC-MAP data for the experiments reported in Table I, which data is now the result of determining the area over the dose response curve for each animal per dose and averaging the AOC-MAP, as well as determining the standard deviation. […]

The conditions of experiment [2]: reported in Oldham et al., J. Cardiovasc. Pharmacol. 6: 672-677 (1984); cited from earlier work.
Where [3] appears, read: Table III, 0.30 mg/kg i.v., average of the area for each animal per dose.
[4] abbreviates: Table III, 1.0 mg/kg i.v., average of the area for each animal per dose.
The mark [5] stands for this setting: Table I, 1.0 mg/kg i.v., ΔMAP of all animals averaged per dose before calculating the area.
[6] abbreviates: Table II, 1.0 mg/kg i.v., average of the area for each animal per dose.

As to `CCCCc1nc(Cl)c(CO)n1Cc1ccc(-c2ccccc2-c2nn[nH]n2)cc1` [Dup 753], the AOC-MAP in experiment [1] (setting [3]) is listed as −125; in experiment [1] (setting [4]) it was −549; in experiment [1] (Table III, 3.0 mg/kg i.v., average of the area for each animal per dose), −1575.

With `CSCC(NC(=O)C(Cc1ccccc1)NC(=O)N1CCOCC1)C(=O)NC(CC1CCCCC1)C(O)C(=O)OC(C)C` (stereo not drawn) [RI, [alpha-R[alpha-R*,beta-S*(S*,S*)]-alpha-hydroxy-beta-[[2-[[2-(4-morpholin-1-carboxamido)-1-oxo-3-phenylpropyl]amino[-3-methylthio-1-oxo-propyl]amino]-cyclohexanebutanoic acid, isopropyl ester], the AOC-MAP is on record as −256 in experiment [1] (Table I, 0.3 mg/kg i.v., ΔMAP of all animals averaged per dose before calculating the area (trapezoidal)); −496 in experiment [1] (setting [5]); −1829 in experiment [1] (Table I, 3.0 mg/kg i.v., ΔMAP of all animals averaged per dose before calculating the area); −310 in experiment [1] (Table II, 0.3 mg/kg i.v., average of the area for each animal per dose); −568 in experiment [1] (setting [6]); −1990 in experiment [1] (Table II, 3.0 mg/kg i.v., average of the area for each animal per dose).

`C[C@H](CS)C(=O)N1CCC[C@H]1C(=O)O` [captopril]: the AOC-MAP is on record as −99 in experiment [1] (Table I, 0.03 mg/kg i.v., ΔMAP of all animals averaged per dose before calculating the area); −289 in experiment [1] (Table I, 0.10 mg/kg i.v., ΔMAP of all animals averaged per dose before calculating the area); −1263 in experiment [1] (Table I, 0.30 mg/kg i.v., ΔMAP of all animals averaged per dose before calculating the area); −3272 in experiment [1] (setting [5]); −96 in experiment [1] (Table II, 0.03 mg/kg i.v., average of the area for each animal per dose); −283 in experiment [1] (Table II, 0.10 mg/kg i.v., average of the area for each animal per dose). The AOC-MAP in experiment [1] (Table II, 0.30 mg/kg i.v., average of the area for each animal per dose) is listed as −1036; in experiment [1] (setting [6]), −3272; in experiment [1] (Table III, 0.03 mg/kg i.v., average of the area for each animal per dose), −96; in experiment [1] (Table III, 0.10 mg/kg i.v., average of the area for each animal per dose), −269; in experiment [1] (setting [3]) it was −826; in experiment [1] (setting [4]), −3272. In addition, the “hypotensive effect of captopril injected during H77 infusion” value in experiment [2] was “small additional hypotensive effect”.
